Test results: US10597388B2, “Pyridazinone herbicides” (FMC CORPORATION, priority 2014, dated 2020)

Assays:
Assay type in all cases: in vivo
[1] = test system: nutsedge, yellow (yellow nutsedge, Cyperus esculentus); test: Test C greenhouse herbicide test, pre- and postemergence
In short: (§1)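 Pre- and postemergence greenhouse screen; values are visual control ratings, 0 meaning no effect and 100 complete kill, assigned relative to untreated plants after 13 to 15 d.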

soybean (Glycine max) = test: as above
In short: as §1

[2] = test system: velvetleaf (Abutilon theophrasti); test: as above
In short: as §1

[3] = test system: blackgrass (Alopecurus myosuroides); test: as above
In short: as §1

corn (Zea mays) [4] = test: as above
In short: as §1

[5] = test system: pigweed (Amaranthus retroflexus); test: as above
In short: as §1

[6] = test system: waterhemp (common waterhemp, Amaranthus rudis); test: as above
In short: as §1

[7] = test system: ryegrass, Italian (Italian ryegrass, Lolium multiflorum); test: Test A greenhouse herbicide test, pre- and postemergence
In short: (§2)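 Seeds in loam–sand blend received a preemergence directed soil spray; plants at 2–10 cm, one- to two-leaf stage, received postemergence sprays. Compounds in a non-phytotoxic solvent with surfactant. After about 10 d in a greenhouse, injury rated visually versus untreated controls on a 0–100 scale (100 = complete control).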

[8] = test system: foxtail, giant (giant foxtail, Setaria faberii); test: as above
In short: as §2

[9] = test system: wheat (Triticum aestivum); test: as above; details: Postemergence; for Plant response rating, Wheat: 125 g ai/ha, 0 to 100 scale where 0 is no effect and 100 is complete control; for Wheat plant response rating: 500 g ai/ha, 0 to 100 scale, 0 is no effect, 100 is complete control
In short: as §2

corn (Zea mays) [10] = test: as above; details: Postemergence; for Plant response rating, Corn: 125 g ai/ha, 0 to 100 scale where 0 is no effect and 100 is complete control; for Corn plant response rating: 500 g ai/ha, 0 to 100 scale, 0 is no effect, 100 is complete control
In short: as §2

[11] = Postemergence, 31 g ai/ha, 0 to 100 scale (0 no effect, 100 complete control)
[12] = Postemergence, 125 g ai/ha, scale 0 to 100, 0 is no effect, 100 is complete control
[13] = Postemergence, 250 g ai/ha, scale 0 to 100, 0 no effect, 100 complete control, 13 to 15 d
[14] = Preemergence, 31 g ai/ha, scale 0 to 100, 0 is no effect, 100 is complete control
[15] = Preemergence, 62 g ai/ha, scale 0 to 100, 0 is no effect, 100 is complete control
[16] = Preemergence, 125 g ai/ha, scale 0 to 100, 0 is no effect, 100 is complete control
[17] = Preemergence, 250 g ai/ha, scale 0 to 100, 0 no effect, 100 complete control
[18] = postemergence, 62 g ai/ha, scale 0 to 100, 0 no effect, 100 complete control
[19] = Postemergence, 125 g ai/ha, 0 to 100 scale where 0 is no effect and 100 is complete control
[20] = Postemergence, 500 g ai/ha, 0 to 100 scale, 0 is no effect, 100 is complete control
[21] = Preemergence, 125 g ai/ha, 0 to 100 scale where 0 is no effect and 100 is complete control
[22] = Preemergence, 500 g ai/ha, 0 to 100 scale, 0 no effect, 100 complete control

## Cc1ccc2sc(C)c(-c3c(OC(=O)OC(C)C)c(C)nn(C)c3=O)c2c1 [Compound 66]
[1]; [11]
  Nutsedge, Yellow plant response rating: 65
[1]; [12]
  Plant response rating, Nutsedge, Yellow: 85
[1]; [13]
  Plant response rating, Nutsedge, Yellow: 85
[1]; [14]
  Plant response rating, Nutsedge, Yellow: 35
[1]; [15]
  Plant response rating, Nutsedge, Yellow: 35
[1]; [16]
  Plant response rating, Nutsedge, Yellow: 30
[1]; [17]
  Nutsedge, Yellow plant response rating: 65
[1]; [18]
  Nutsedge, Yellow plant response rating: 70
Soybean (Glycine max); [11]
  Soybean plant response rating: 0
Soybean (Glycine max); [12]
  Plant response rating, Soybean: 10
Soybean (Glycine max); [13]
  Plant response rating, Soybean: 5
Soybean (Glycine max); [14]
  Plant response rating, Soybean: 0
Soybean (Glycine max); [15]
  Plant response rating, Soybean: 0
Soybean (Glycine max); [16]
  Plant response rating, Soybean: 0
Soybean (Glycine max); [17]
  Soybean plant response rating: 0
Soybean (Glycine max); [18]
  Soybean plant response rating: 10
[2]; [11]
  Velvetleaf plant response rating: 55
[2]; [12]
  Plant response rating, Velvetleaf: 85
[2]; [13]
  Plant response rating, Velvetleaf: 95
[2]; [14]
  Plant response rating, Velvetleaf: 15
[2]; [15]
  Plant response rating, Velvetleaf: 60
[2]; [16]
  Plant response rating, Velvetleaf: 70
[2]; [17]
  Velvetleaf plant response rating: 85
[2]; [18]
  Velvetleaf plant response rating: 75
[3]; [11]
  Blackgrass plant response rating: 10
[3]; [12]
  Plant response rating, Blackgrass: 40
[3]; [13]
  Plant response rating, Blackgrass: 60
[3]; [14]
  Plant response rating, Blackgrass: 10
[3]; [15]
  Plant response rating, Blackgrass: 30
[3]; [16]
  Plant response rating, Blackgrass: 35
[3]; [17]
  Blackgrass plant response rating: 30
[3]; [18]
  Blackgrass plant response rating: 15
Corn (Zea mays) [4]; [11]
  Corn plant response rating: 0
Corn (Zea mays) [4]; [12]
  Plant response rating, Corn: 5
Corn (Zea mays) [4]; [13]
  Plant response rating, Corn: 25
Corn (Zea mays) [4]; [14]
  Plant response rating, Corn: 0
Corn (Zea mays) [4]; [15]
  Plant response rating, Corn: 0
Corn (Zea mays) [4]; [16]
  Plant response rating, Corn: 0
Corn (Zea mays) [4]; [17]
  Corn plant response rating: 0
Corn (Zea mays) [4]; [18]
  Corn plant response rating: 0
[5]; [11]
  Pigweed plant response rating: 95
[5]; [12]
  Plant response rating, Pigweed: 100
[5]; [13]
  Plant response rating, Pigweed: 100
[5]; [14]
  Plant response rating, Pigweed: 100
[5]; [15]
  Plant response rating, Pigweed: 100
[5]; [16]
  Plant response rating, Pigweed: 100
[5]; [17]
  Pigweed plant response rating: 100
[5]; [18]
  Pigweed plant response rating: 98
[6]; [11]
  Waterhemp plant response rating: 98
[6]; [12]
  Plant response rating, Waterhemp: 90
[6]; [13]
  Plant response rating, Waterhemp: 100
[6]; [14]
  Plant response rating, Waterhemp: 85
[6]; [15]
  Plant response rating, Waterhemp: 90
[6]; [16]
  Plant response rating, Waterhemp: 100
[6]; [17]
  Waterhemp plant response rating: 100
[6]; [18]
  Waterhemp plant response rating: 90
[7]; [19]
  Plant response rating, Ryegrass, Italian: 90
[7]; [20]
  Ryegrass, Italian plant response rating: 100
[7]; [21]
  Ryegrass, Italian plant response rating: 90
[7]; [22]
  Plant response rating, Ryegrass, Italian: 100
[8]; [19]
  Plant response rating, Foxtail, Giant: 70
[8]; [20]
  Foxtail, Giant plant response rating: 90
[8]; [21]
  Foxtail, Giant plant response rating: 60
[8]; [22]
  Plant response rating, Foxtail, Giant: 90
[9]
  Plant response rating, Wheat: 0
  Wheat plant response rating: 0
Corn (Zea mays) [10]
  Plant response rating, Corn: 0
  Corn plant response rating: 0

## CCc1sc2ccc(C)cc2c1-c1c(O)c(C)nn(C)c1=O [Compound 47]
[1]; [11]
  Nutsedge, Yellow plant response rating: 40
[1]; [12]
  Plant response rating, Nutsedge, Yellow: 80
[1]; [13]
  Plant response rating, Nutsedge, Yellow: 90
[1]; [14]
  Plant response rating, Nutsedge, Yellow: 35
[1]; [15]
  Plant response rating, Nutsedge, Yellow: 45
[1]; [16]
  Plant response rating, Nutsedge, Yellow: 75
[1]; [17]
  Nutsedge, Yellow plant response rating: 85
[1]; [18]
  Nutsedge, Yellow plant response rating: 70
Soybean (Glycine max); [11]
  Soybean plant response rating: 0
Soybean (Glycine max); [12]
  Plant response rating, Soybean: 10
Soybean (Glycine max); [13]
  Plant response rating, Soybean: 15
Soybean (Glycine max); [14]
  Plant response rating, Soybean: 0
Soybean (Glycine max); [15]
  Plant response rating, Soybean: 0
Soybean (Glycine max); [16]
  Plant response rating, Soybean: 10
Soybean (Glycine max); [17]
  Soybean plant response rating: 30
Soybean (Glycine max); [18]
  Soybean plant response rating: 10
[2]; [11]
  Velvetleaf plant response rating: 70
[2]; [12]
  Plant response rating, Velvetleaf: 95
[2]; [13]
  Plant response rating, Velvetleaf: 95
[2]; [14]
  Plant response rating, Velvetleaf: 65
[2]; [15]
  Plant response rating, Velvetleaf: 90
[2]; [16]
  Plant response rating, Velvetleaf: 100
[2]; [17]
  Velvetleaf plant response rating: 100
[2]; [18]
  Velvetleaf plant response rating: 90
[3]; [11]
  Blackgrass plant response rating: 0
[3]; [12]
  Plant response rating, Blackgrass: 30
[3]; [13]
  Plant response rating, Blackgrass: 30
[3]; [14]
  Plant response rating, Blackgrass: 0
[3]; [15]
  Plant response rating, Blackgrass: 30
[3]; [16]
  Plant response rating, Blackgrass: 40
[3]; [17]
  Blackgrass plant response rating: 90
[3]; [18]
  Blackgrass plant response rating: 20
Corn (Zea mays) [4]; [11]
  Corn plant response rating: 0
Corn (Zea mays) [4]; [12]
  Plant response rating, Corn: 10
Corn (Zea mays) [4]; [13]
  Plant response rating, Corn: 5
Corn (Zea mays) [4]; [14]
  Plant response rating, Corn: 0
Corn (Zea mays) [4]; [15]
  Plant response rating, Corn: 0
Corn (Zea mays) [4]; [16]
  Plant response rating, Corn: 0
Corn (Zea mays) [4]; [17]
  Corn plant response rating: 5
Corn (Zea mays) [4]; [18]
  Corn plant response rating: 5
[5]; [11]
  Pigweed plant response rating: 90
[5]; [12]
  Plant response rating, Pigweed: 98
[5]; [13]
  Plant response rating, Pigweed: 98
[5]; [14]
  Plant response rating, Pigweed: 100
[5]; [15]
  Plant response rating, Pigweed: 100
[5]; [16]
  Plant response rating, Pigweed: 100
[5]; [17]
  Pigweed plant response rating: 100
[5]; [18]
  Pigweed plant response rating: 90
[6]; [11]
  Waterhemp plant response rating: 90
[6]; [12]
  Plant response rating, Waterhemp: 100
[6]; [13]
  Plant response rating, Waterhemp: 100
[6]; [14]
  Plant response rating, Waterhemp: 100
[6]; [15]
  Plant response rating, Waterhemp: 98
[6]; [16]
  Plant response rating, Waterhemp: 100
[6]; [17]
  Waterhemp plant response rating: 100
[6]; [18]
  Waterhemp plant response rating: 75
[7]; [19]
  Plant response rating, Ryegrass, Italian: 70
[7]; [20]
  Ryegrass, Italian plant response rating: 80
[7]; [21]
  Ryegrass, Italian plant response rating: 60
[7]; [22]
  Plant response rating, Ryegrass, Italian: 90
[8]; [19]
  Plant response rating, Foxtail, Giant: 80
[8]; [20]
  Foxtail, Giant plant response rating: 80
[8]; [21]
  Foxtail, Giant plant response rating: 70
[8]; [22]
  Plant response rating, Foxtail, Giant: 80
[9]
  Plant response rating, Wheat: 0
  Wheat plant response rating: 0
Corn (Zea mays) [10]
  Plant response rating, Corn: 0
  Corn plant response rating: 10
